Substitutions are numbered along the chain they refer to. Entries after “also recorded” stand apart in the source; their conditions may differ.
Experiments:
[1] = molecular target: T1, T. brucei hexokinase 1 (TbHK1), WT (Trypanosoma brucei brucei, UniProt Q38C42); test: Coupled hexokinase assay; format: biochemical
T1 sequence (Q38C42 1-471): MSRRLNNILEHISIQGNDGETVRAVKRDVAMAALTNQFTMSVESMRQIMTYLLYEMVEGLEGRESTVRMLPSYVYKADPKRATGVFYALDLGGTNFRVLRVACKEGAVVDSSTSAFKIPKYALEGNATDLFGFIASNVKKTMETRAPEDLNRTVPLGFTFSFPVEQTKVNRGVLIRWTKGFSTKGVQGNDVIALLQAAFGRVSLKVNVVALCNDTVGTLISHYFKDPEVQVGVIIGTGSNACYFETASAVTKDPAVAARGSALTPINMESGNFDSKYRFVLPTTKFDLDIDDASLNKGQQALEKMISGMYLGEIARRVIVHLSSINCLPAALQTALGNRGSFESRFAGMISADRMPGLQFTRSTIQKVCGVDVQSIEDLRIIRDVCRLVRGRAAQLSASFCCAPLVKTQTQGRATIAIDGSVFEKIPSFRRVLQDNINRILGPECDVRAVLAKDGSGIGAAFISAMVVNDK

TbHK1 [2] = molecular target: T2, TbHK1 (Trypanosoma brucei brucei, UniProt Q38C42); conditions: ref Sharlow et al., 2010b, cited from earlier work; for Inhibition of TbHK1: LOPAC screen, at 10 μM
T2 sequence (Q38C42 1-471): T1 sequence (Q38C42 1-471)

T. brucei parasites = conditions: ref Sharlow et al., cited from earlier work; for EC50: read-out: EC50 against parasites, unit inferred, 2010a,b; for Toxicity to parasites: 2010b
parasite G6-P levels = conditions: after acute exposure; ref Sharlow et al., 2010a,b; cited from earlier work
[3] = tested on: HK from Plasmodium falciparum (PfHK); conditions: ref Harris et al., 2013, cited from earlier work
[4] = tested on: human indoleamine 2,3-dioxygenase (IDO); conditions: covalent modification of multiple Cys residues; ref Terentis et al., 2010; cited from earlier work
TbHK1 C402A = molecular target: T3, TbHK1 C402A (Trypanosoma brucei brucei, UniProt Q38C42, C402A); test: Coupled hexokinase assay, TbHK1 Cys variant C402A; format: biochemical
T3 sequence (Q38C42 1-471 C402A): T1 sequence (Q38C42 1-471) with C402A

TbHK1 C369A = molecular target: T4, TbHK1 C369A (Trypanosoma brucei brucei, UniProt Q38C42, C369A); test: Coupled hexokinase assay, TbHK1 Cys variant C369A; format: biochemical
T4 sequence (Q38C42 1-471 C369A): T1 sequence (Q38C42 1-471) with C369A

[5] = tested on: glucose-6-phosphate dehydrogenase (G6PDH); test: Counterscreen for inhibition of G6PDH; format: biochemical
[6] = cited from earlier work
TbHK1 C242A = molecular target: T5, TbHK1 C242A (Trypanosoma brucei brucei, UniProt Q38C42, C242A); test: Coupled hexokinase assay, TbHK1 Cys variant C242A; format: biochemical
T5 sequence (Q38C42 1-471 C242A): T1 sequence (Q38C42 1-471) with C242A

TbHK1 C212S = molecular target: T6, TbHK1 C212S (Trypanosoma brucei brucei, UniProt Q38C42, C212S); test: Coupled hexokinase assay, TbHK1 Cys variant C212S; format: biochemical
T6 sequence (Q38C42 1-471 C212S): T1 sequence (Q38C42 1-471) with C212S

TbHK1 C445A = molecular target: T7, TbHK1 C445A (Trypanosoma brucei brucei, UniProt Q38C42, C445A); test: Coupled hexokinase assay, TbHK1 Cys variant C445A; format: biochemical
T7 sequence (Q38C42 1-471 C445A): T1 sequence (Q38C42 1-471) with C445A

TbHK1 C401A = molecular target: T8, TbHK1 C401A (Trypanosoma brucei brucei, UniProt Q38C42, C401A); test: Coupled hexokinase assay, TbHK1 Cys variant C401A; format: biochemical
T8 sequence (Q38C42 1-471 C401A): T1 sequence (Q38C42 1-471) with C401A

TbHK1 [7] = molecular target: T2, TbHK1; test: Native gel analysis of TbHK1 oligomerization; conditions: data not shown

## O[C@@H](CS)[C@@H](O)CS (racemic) [DTT, dithiothreitol]
[1]; DTT alone, 100 mM
  Impact on enzyme activity: little impact on enzyme activity

## O=C(O)c1cc[c]([Hg][Cl])cc1 [4-chloromercuribenzoic acid]
TbHK1 [2]
  Inhibition of TbHK1: 84.7 ± 0.4%

## O=c1c2ccccc2sn1-c1ccccc1 [EbS, 2-phenyl-1,2-benzisothiazol-3(2H)-one]
T. brucei parasites
  EC50: 30 ± 67 nM
  Toxicity to parasites: toxic to parasites
Parasite G6-P levels
  Effect on parasite G6-P levels: able to reduce parasite G6-P levels
[3]
  Reversibility of PfHK inhibition by dilution: completely relieved by dilution

## O=c1c2ccccc2[se]n1-c1ccccc1 [EbSe, 2-phenyl-1,2-benzisoselenazol-3(2H)-one]
TbHK1 [2]
  Inhibition of TbHK1: 88.1 ± 0.6%
TbHK1 [2]; with respect to ATP
  Mode of inhibition: mixed inhibitors
T. brucei parasites
  EC50: 2900 ± 280 nM
  Toxicity to parasites: toxic to parasites
[4]
  Inhibition of human IDO: inhibited
TbHK1 C402A
  IC50: 430 ± 110 nM
TbHK1 C369A
  IC50: 260 ± 20 nM
[5]
  Inhibition of G6PDH in counterscreen: ineffective
[6]; human, in vivo
  Toxicity to humans: non-toxic
[6]; ref Yamaguchi et al., 1998
  Outcome of patients suffering stroke: improve the outcome
TbHK1 C242A
  IC50: 550 ± 20 nM
Parasite G6-P levels
  Effect on parasite G6-P levels: able to reduce parasite G6-P levels
TbHK1 C212S
  Sensitivity of variant to inhibition: remained sensitive
TbHK1 C212S; read-out: EbSe IC50, relative to WT
  IC50: < 350 nM
[3]; more potent on PfHK
  Potency against PfHK relative to TbHK1: ~10 fold
[3]
  Reversibility of PfHK inhibition by dilution: completely relieved by dilution
TbHK1 C445A
  IC50: 520 ± 50 nM
[1]
  IC50: 350 ± 70 nM
[1]; 200-fold dilution of enzyme and inhibitor after pre-incubation
  Reversibility of inhibition by dilution: not reversible; also recorded: irreversible
[1]; DTT 100 mM added after incubation with inhibitor
  Rescue of enzyme activity by DTT added after inhibitor incubation: only modestly rescued enzyme activity
[1]; Mg2+ at ~15-fold higher concentrations than standard reaction, data not shown
  Relief of inhibition by excess Mg2+: did not relieve EbSe inhibition
[1]; data not shown
  Effect of pre-incubation of TbHK1 with DTT on inhibition: prevented EbSe inhibition
[1]; enzyme pre-incubated with MPB
  Effect of pre-incubation with MPB on inhibition: did not appreciably alter EbSe inhibition
TbHK1 C401A
  IC50: 290 ± 40 nM
TbHK1 [7]
  Impact on oligomerization of TbHK1: neither EbSe nor TCEP impact oligomerization

## O=C(CCCCC1SCC2NC(=O)NC21)NCCCCC(NC(=O)CCN1C(=O)C=CC1=O)C(=O)O (stereo not drawn) [MPB, 3-(N-maleimidopropionyl)-biocytin]
[1]; MPB at concentrations up to 50 μM
  Impact on enzyme activity: did not impact enzyme activity

## O=C(O)CCP(CCC(=O)O)CCC(=O)O [TCEP, tris (2-carboxyethyl)phosphine]
TbHK1 [7]
  Impact on oligomerization of TbHK1: neither EbSe nor TCEP impact oligomerization
